Laboratory results from the NIST ThermoML archive (doi:10.1021/je800110r).

Details: Liquid, Vibrating tube method

CCCCCCCCCC [decane]
Details	mass density [kg/m3]
333.14 K, 31467 kPa	725.7
333.14 K, 31504 kPa	725.7
333.14 K, 31531 kPa	725.6
333.14 K, 31564 kPa	725.8
333.14 K, 31694 kPa	725.9
333.14 K, 31764 kPa	725.9
333.14 K, 32193 kPa	726
333.14 K, 32227 kPa	726.1
333.14 K, 32261 kPa	726.2
333.14 K, 32305 kPa	726.2
333.14 K, 32335 kPa	726.3
333.14 K, 32366 kPa	726.3
333.14 K, 32401 kPa	726.4
333.14 K, 32435 kPa	726.3
333.15 K, 358 kPa	699.5
333.15 K, 377 kPa	699.6
333.15 K, 404 kPa	699.5
333.15 K, 423 kPa	699.6
333.15 K, 440 kPa	699.5
333.15 K, 465 kPa	699.6
333.15 K, 501 kPa	699.6
333.15 K, 536 kPa	699.7
333.15 K, 563 kPa	699.6
333.15 K, 600 kPa	699.7
333.15 K, 627 kPa	699.8
333.15 K, 645 kPa	699.8
333.15 K, 672 kPa	699.8
333.15 K, 696 kPa	699.8
333.15 K, 727 kPa	699.7
333.15 K, 765 kPa	699.9
333.15 K, 1005 kPa	700.1
333.15 K, 1052 kPa	700.2
333.15 K, 1108 kPa	700.3
333.15 K, 1167 kPa	700.2
333.15 K, 1210 kPa	700.4
333.15 K, 1236 kPa	700.4
333.15 K, 1263 kPa	700.3
333.15 K, 1284 kPa	700.3
333.15 K, 1315 kPa	700.4
333.15 K, 1341 kPa	700.4
333.15 K, 1363 kPa	700.5
333.15 K, 1393 kPa	700.4
333.15 K, 1421 kPa	700.6
333.15 K, 1449 kPa	700.6
333.15 K, 1481 kPa	700.6
333.15 K, 1519 kPa	700.7
333.15 K, 1544 kPa	700.7
333.15 K, 1588 kPa	700.7
333.15 K, 1620 kPa	700.7
333.15 K, 1662 kPa	700.7
333.15 K, 1706 kPa	700.8
333.15 K, 1751 kPa	701
333.15 K, 1782 kPa	700.9
333.15 K, 1825 kPa	700.9
333.15 K, 1879 kPa	701
333.15 K, 1924 kPa	701
333.15 K, 1954 kPa	701
333.15 K, 2001 kPa	701.1
333.15 K, 2049 kPa	701.1
333.15 K, 2081 kPa	701.2
333.15 K, 2130 kPa	701.3
333.15 K, 2176 kPa	701.4
333.15 K, 2223 kPa	701.4
333.15 K, 2280 kPa	701.4
333.15 K, 2332 kPa	701.3
333.15 K, 2406 kPa	701.5
333.15 K, 2460 kPa	701.6
333.15 K, 2497 kPa	701.6
333.15 K, 2529 kPa	701.6
333.15 K, 2556 kPa	701.6
333.15 K, 2594 kPa	701.7
333.15 K, 2623 kPa	701.7
333.15 K, 2666 kPa	701.7
333.15 K, 2701 kPa	701.7
333.15 K, 2737 kPa	701.7
333.15 K, 2769 kPa	701.8
333.15 K, 2837 kPa	701.9
333.15 K, 3106 kPa	702.2
333.15 K, 3141 kPa	702.3
333.15 K, 3150 kPa	702.3
333.15 K, 3174 kPa	702.3
333.15 K, 3195 kPa	702.3
333.15 K, 3232 kPa	702.3
333.15 K, 3264 kPa	702.3
333.15 K, 3283 kPa	702.4
333.15 K, 3311 kPa	702.4
333.15 K, 3335 kPa	702.4
333.15 K, 3368 kPa	702.4
333.15 K, 3387 kPa	702.5
333.15 K, 3414 kPa	702.4
333.15 K, 3444 kPa	702.5
333.15 K, 3468 kPa	702.5
333.15 K, 3500 kPa	702.6
333.15 K, 3528 kPa	702.6
333.15 K, 3556 kPa	702.7
333.15 K, 3593 kPa	702.6
333.15 K, 3622 kPa	702.7
333.15 K, 3651 kPa	702.7
333.15 K, 3678 kPa	702.8
333.15 K, 3717 kPa	702.7
333.15 K, 3736 kPa	702.8
333.15 K, 3769 kPa	702.8
333.15 K, 3790 kPa	702.8
333.15 K, 3823 kPa	702.8
333.15 K, 3870 kPa	703
333.15 K, 3903 kPa	703
333.15 K, 3934 kPa	703
333.15 K, 3970 kPa	703
333.15 K, 3998 kPa	703.2
333.15 K, 4018 kPa	703.1
333.15 K, 4043 kPa	703.1
333.15 K, 4068 kPa	703.1
333.15 K, 4097 kPa	703.1
333.15 K, 4127 kPa	703.1
333.15 K, 4159 kPa	703.3
333.15 K, 4185 kPa	703.1
333.15 K, 4204 kPa	703.1
333.15 K, 4227 kPa	703.2
333.15 K, 4258 kPa	703.3
333.15 K, 4277 kPa	703.4
333.15 K, 4305 kPa	703.4
333.15 K, 4337 kPa	703.5
333.15 K, 4365 kPa	703.4
333.15 K, 4394 kPa	703.5
333.15 K, 4422 kPa	703.5
333.15 K, 4448 kPa	703.5
333.15 K, 4474 kPa	703.6
333.15 K, 4505 kPa	703.5
333.15 K, 4527 kPa	703.6
333.15 K, 4547 kPa	703.5
333.15 K, 4580 kPa	703.6
333.15 K, 4599 kPa	703.6
333.15 K, 4631 kPa	703.7
333.15 K, 4657 kPa	703.7
333.15 K, 4686 kPa	703.7
333.15 K, 4710 kPa	703.6
